Tests used:
[1] = tested on: mice after myocardial infarction; experiment: Progressive maximal exercise test, indirect calorimetry (VO2, VCO2); format: in vivo; conditions: three weeks post-MI
Experimental: RER, VO2 and VCO2 measurements. Respiratory exchange ratio (RER), oxygen consumption (VO^2) and carbon dioxide expiration (VCO2) were measured by indirect calorimetry using a progressive maximal exercise test until mice reached exhaustion.
RER, VO2 and VCO2 measurements. RER, VO2 and VCO2 were measured by indirect calorimetry using a progressive maximal exercise test until mice reached exhaustion.

[2] = tested on: chorioallantoic membrane (CAM) of chicken eggs; experiment: CAM angiogenesis assay with drug treated mouse embryonic fibroblasts; format: in vivo; conditions: MEFs pre-treated with 0.6 μM for 24 hours
Experimental: Angiogenesis Assay with drug treated mouse embryonic fibroblasts (MEFs). Five to seven day old SPF certified fertilized chicken eggs (white leghorn) were used to access the chorioallantoic membrane (CAM). Mouse embryonic fibroblasts (MEFs) were treated with 0.6 μM MCB-613 for 24 hours. Post treatment, two million MEFs were suspended in 60 μL of PBS containing magnesium and calcium and 40 μL of Matrigel (2M/egg) (Corning Inc.; Corning, NY). The MEFs were then mixed well by pipetting and transferred to the surface of the CAM. The vessel area on the CAM was monitored on a daily basis. Vehicle controls were maintained throughout the experiment. MEFs were allowed to grow on the CAM surface for four days at the end of which an image thresholding method (ImageJ) was used to quantify total vessel area on the CAM. Percent growth in vessel area was then compared across control and treated eggs (MEF treated versus untreated). n=6 eggs per condition.

[3] = tested on: SRC-1, SRC-2 or SRC-3 fused with the DNA binding domain of Gal4; experiment: Gal4 luciferase reporter (pG5-luc / pBIND-SRC) in HeLa cells; format: cell-based; conditions: pG5-luc + pBIND-SRC-1, -2 or -3
Description: The compounds described herein stimulate SRC intrinsic transcriptional activity. HeLa cells transfected with a Gal4 responsive luciferase reporter (pG5-luc) and a construct encoding SRC-1, SRC-2 or SRC-3 fused with the DNA binding domain of Gal4 (pBIND-SRC-1, pBIND-SRC-2 or pBIND-SRC-3) were exposed to treatments with compounds as described herein, including MCB-613, Compound 10-1, and Compound 10-2.

[4] = tested on: mouse hearts after myocardial infarction; experiment: Metabolomic profiling of hearts post-MI; format: in vivo, mice
Experimental: Metabolomic profiling. Hearts from 4 control and 4 MCB-613-treated mice were isolated 24 hours post-MI, perfused with 10 mM KCl, snap frozen in liquid nitrogen and stored at −80° C. 10 mgs of tissue was analyzed for fatty acids and carnitines normalized to 3 normal liver control samples. Fatty acids were normalized by Internal Standard L-Tryptophan and carnitines normalized by Internal Standard L-Zeatine.

[5] = tested on: chorioallantoic membrane (CAM) of chicken eggs; experiment: Chick egg CAM angiogenesis assay, topical drug; format: in vivo; conditions: 0.6 μM applied directly to chick eggs
Experimental: Angiogenesis assay for small molecule stimulator treatments. Five to seven day old specific-pathogen-free (SPF) certified fertilized chicken eggs (white leghorn) were used to access the chorioallantoic membrane (CAM). The total vessel area on the CAM was measured using images obtained prior to application of the drug. MCB-613 (100 μL) at a concentration of 0.6 μM was topically applied onto the surface of the CAM. The vessel area on the CAM was monitored on a daily basis following daily application of the drug. Vehicle controls were maintained throughout the experiment. Treatments were continued for four days at the end of which an image thresholding method (ImageJ) was used to quantify total vessel area on the CAM. Percent growth in vessel area was compared for control and treated eggs. n=6 eggs per condition. This experiment was repeated three times.

[6] = tested on: mice after myocardial infarction; experiment: Myocardial infarction model, permanent LAD ligation (echocardiography, histology, immunostaining, PET, EM); format: in vivo, ICR (CD1) mice; conditions: repeat injections three days at weeks 8 and 16

For `CCC1C/C(=C\c2cccnc2)C(=O)/C(=C/c2cccnc2)C1` (centres unmarked) [MCB-613], the “VCO2 and VO2 during exercise” value [1] was “VCO2 and VO2 are elevated”, the “angiogenesis (vessel area on CAM)” value [2] was “promoted robust angiogenesis” and the “intrinsic transcriptional activity of SRCs (luciferase)” value [3] was “selectively stimulates the intrinsic transcriptional activity of SRCs”. For the same molecule, the cardioprotective carnitine metabolites ([4]; mouse hearts 24 hours post-MI) was “increases cardioprotective carnitine metabolites”, the “β-oxidation of long-chain fatty acids” value ([4]; mouse hearts 24 hours post-MI) was “increases β-oxidation of long-chain fatty acids” and the methylglutaryl carnitine ([4]; mouse hearts post-MI) was “decreases methylglutaryl carnitine”. The “angiogenesis (vessel area on CAM)” value [5] was “stimulated angiogenesis in vivo” and the “effect of repeat injections on ejection fraction” value [6] was “did not alter ejection fractions”.

Reference: US12338229B2, “Small molecule stimulators of steroid receptor coactivator-3 and methods of their use as cardioprotective and/or vascular regenerative agents” (BAYLOR COLLEGE OF MEDICINE, priority 2018, dated 2025)
